{
  "source": "patent US20190105260A1",
  "about": "“COMPOSITIONS AND METHODS TO PROMOTE WOUND HEALING” (The Regents of the University of California, priority 2016, published 2019)",
  "key": {"[1]": {"tested_on": "wound beds of Db/Db female mice", "test": "Immunohistochemistry of wound beds (Gr-1, F4/80, CD31)", "format": "in vivo, mouse", "settings": "topical treatment, day 10", "description": "13 week-old Db/Db female mice underwent full-thickness excisional biopsies with 8 mm punch biopsies. Wounds were splinted to prevent contraction. At day 10, animals were sacrificed and wounds were harvested to assess re-epithelialization. Representative histology sections for each group were chosen. Following euthanasia of animals, wounds were excised, biopsied and bisected. Wound tissue was fixed in paraformaldehyde for 12-16 hours and then paraffin embedded. Serial […] sections were obtained from the center of the wound and the section with the largest wound bed (as defined by distance between subcutaneous fat tissue—indicated by yellow arrows in figure). Images were taken using 10× objective on a Keyance microscope. Sections were stained with antibody to Gr-1 (A), CD31 (B) or F4/80 (C) to assess neutrophil, endothelial cell or macrophage numbers, respectively, in the wound beds. Wound bed area was outlined in Spectrum software (demarcated by yellow arrows in this figure), which then calculated the number of positive cells. Data is presented as positive cells/mm^2. P values were derived using a 1-tailed t-test. *, p<0.05; **, p<0.01. N=5/group.\nFollowing euthanasia, wound tissue was harvested and processed as described above. Antibodies: F4/80 (Serotec, now BioRad MCA497A488, clone CI:A3-1, 1:100 dilution); GR-1 (Biolegend, catalog number 108402, clone RB6-8C5, 1:200 dilution); CD31 (Santa Cruz, catalog number sc1506, clone M20, 1:1800 dilution). Wound beds were analyzed in Spectrum software (UC Davis). Wound beds were outlined based on subcutaneous fat presence and positive cells were calculated as #/mm^2 of wound bed."}, "[2]": {"tested_on": "CFSE-labeled CD4+CD25- effector T cells stimulated with CD11c+ dendritic cells", "test": "Mixed lymphocyte reaction", "format": "cell-based, mouse", "settings": "1 μM fluoxetine, 10 μM serotonin, 3,000 AMSC or 1,500 BMSC added to co-cultures", "description": "Panel A: In a mixed lymphocyte reaction, 250,000 Carboxyfluorescein succinimidyl ester (CFSE)-labeled CD4+CD25-effector T cells were cultured with 100,000 CD11c+ dendritic cells as antigen. […] Proliferation was measured based on CFSE dilution. […] P values were derived using a 2-tailed t-test.\nMixed lymphocyte reactions were performed as described. Briefly, allogenic effector B6 CF SE-labeled T cells were incubated in a 96-well plate (250,000/well) with CD11c+ Bal/b APC (100,000/well) that were purified from bulk splenocytes on anti-CD11c-coupled Milteny microbeads. […] Proliferation was measured based on CFSE dilution."}, "[3]": {"tested_on": "Neonatal Human Keratinocytes (NHKs)", "test": "Scratch wound assay", "format": "cell-based", "description": "FIGS. 2A-C illustrate that serotonin (5-HT) increases keratinocyte migratory speed and re-epithelialization in a scratch wound ex vivo model, likely through the ERK-STAT3-NFkB pathway.\nNeonatal Human Keratinocytes (NHKs) were either non-treated (Control) or treated with 5-HT (1 μM) and FLX (0.01 μM, 0.1 μM, 1 μM) and/or 5HTR1A blocker (100 nM NAN190) and/or 5HTR2A antagonist (1 μM Ketanserin or KET). NHKs from at least 3 different donors were plated at fully confluent density and treated with Mitomycin to prevent proliferation. P-200 tips were used to induce a scratch wound in the middle of each well and time-lapse images were recorded every 30 minutes for 6 hours and % healed were calculated as previously described. Data represented as Mean±SEM. Student t-tests were used for statistical analysis. *, p<0.05; **, p<0.01; ***, p<0.001.\nNHKs were isolated and cultured from human foreskin as previously reported. […]\nNHKs from 3 different donors were plated on collagen-coated 12-well plates at fully confluent density and treated with Mitomycin C to prevent proliferation. P-200 tips were used to induce a scratch wound in the middle of each well and time-lapse images were recorded every 30 minutes for 6 hours and % healed were calculated as following: % Healed=([(SA)]_(t=0)−[(SA)]_(t=6))/[(SA)]_(t=0) which SA represents surface area of the scratch wound gap at 0-hour (t=0) or 6-hour time point. […]"}},
  "data": [
    {"smiles": "CNCCC(Oc1ccc(C(F)(F)F)cc1)c1ccccc1", "note": "(stereo not shown) [fluoxetine]", "values": [
      {"measurement": "angiogenesis (CD31+ endothelial cells) in wound beds vs vehicle", "setting": "[1]", "result": "significantly increased"},
      {"measurement": "macrophage (F4/80+ cells) numbers in wound beds vs vehicle", "setting": "[1]", "result": "significantly increased"},
      {"measurement": "neutrophils (Gr-1+ cells) in wound beds vs vehicle", "setting": "[1]", "result": "significantly fewer"},
      {"measurement": "T cell proliferation (CFSE dilution)", "setting": "[2]", "result": "significantly inhibit"},
      {"measurement": "migratory speed of human keratinocytes", "setting": "[3]; fluoxetine (0.01-1 μM) in the presence of serotonin (1 μM), 6 hours", "result": "significantly increased"}
    ]},
    {"smiles": "NCCc1c[nH]c2ccc(O)cc12", "note": "[serotonin]", "values": [
      {"measurement": "angiogenesis (CD31+ endothelial cells) in wound beds vs vehicle", "setting": "[1]", "result": "increasing"},
      {"measurement": "macrophage (F4/80+ cells) numbers in wound beds vs vehicle", "setting": "[1]", "result": "increasing"},
      {"measurement": "neutrophils (Gr-1+ cells) in wound beds vs vehicle", "setting": "[1]", "result": "significantly fewer"},
      {"measurement": "T cell proliferation (CFSE dilution)", "setting": "[2]", "result": "significantly inhibit"},
      {"measurement": "migration of keratinocytes", "setting": "[3]; primary keratinocytes from 3 donors, 6-hour time point, mitomycin-treated", "result": "enhance migration of keratinocytes in a dose-dependent manner"}
    ]}
  ]
}
